Test results: patent US7037656B2, “Methods and compositions for identifying ligands for nuclear receptors” (priority 2000, dated 2006)

How the values were obtained:
Type in all cases: cell-based
[1] = molecular target: T1, Aa AB EcR/Aa USPa and SMRT (Aedes aegypti, UniProt P49880); assay: Yeast 6x EcRE-lacZ reporter assay with SMRT (ligand-dependent down regulation); settings: 10 μM; Aa AB EcR/Aa USPa co-expressed with SMRT, constitutive reporter expression without ligand (FIG. 10A)
T1 construct: human ubiquitin (76 aa) (N, cleaved yes); expressed in transfected cells; host or cells: yeast (Saccharomyces cerevisiae)
T1 sequence (P49880 with tags, fused parts or gaps): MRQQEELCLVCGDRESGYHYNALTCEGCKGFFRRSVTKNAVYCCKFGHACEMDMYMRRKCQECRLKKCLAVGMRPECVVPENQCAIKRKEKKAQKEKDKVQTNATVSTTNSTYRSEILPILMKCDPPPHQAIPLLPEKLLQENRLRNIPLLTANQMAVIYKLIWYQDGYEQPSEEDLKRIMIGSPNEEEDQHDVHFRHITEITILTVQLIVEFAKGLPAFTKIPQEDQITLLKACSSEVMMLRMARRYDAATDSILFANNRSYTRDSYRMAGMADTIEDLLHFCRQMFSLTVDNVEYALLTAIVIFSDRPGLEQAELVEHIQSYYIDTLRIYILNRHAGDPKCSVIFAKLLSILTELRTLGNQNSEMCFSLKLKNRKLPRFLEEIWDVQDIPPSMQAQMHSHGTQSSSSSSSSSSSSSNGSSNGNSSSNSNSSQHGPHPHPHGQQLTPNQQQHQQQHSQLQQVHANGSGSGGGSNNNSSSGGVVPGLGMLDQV
Text: FIGS. 10A and 10B are graphs showing the roles of the coactivators and co-repressors in transactivation of AaΔEcR. Interaction of different transcriptional factors in combination with the heterodimers AaΔEcR/USPa or AaΔEcR/USPb (FIG. 10A). […] The yeast strains carrying the reporter plasmid which contains 6 EcRE response elements coupled with E. coli β gal gene in combination with the presence of different plasmids for expression of different USPs, AaΔEcR and coactivators/repressors. The final concentration of all ecdysteroid analogues was 10 μM. The data are presented as a median set of at least 8 independent experiments plus SD.
Briefly, yeast cells are cultured in 5 mL of YPD liquid medium overnight at 30° C. The cell culture was diluted 1:20 in YPD media and further grown until cell density reached an O.D of 0.6. at OD600. The cells were pelleted by centrifugation and washed with 10 mL of TE+0.1M lithium acetate. Cells are then resuspended in 10 mL TE+0.1M lithium acetate and incubated at 30° C. for 1 hour. Cells are collected and resuspended in 0.5 mL of TE+ 0.1M lithium acetate. Aliquots of cells (50 μL), were incubated for 15 minutes at 30° C. with 1–2 μg plasmid DNA in the presence of 5 μg of denatured salmon sperm DNA as DNA carrier. In the case of co-transformation, the indicated plasmids were added simultaneously. […]

[2] = molecular target: T2, Dm ΔN EcR + DmUSP + GRIP1 (Drosophila melanogaster, UniProt P34021); assay: Yeast 6x EcRE-lacZ β-galactosidase transactivation assay; settings: RH 5992 10 μM, 4 hours, DMSO control 0.424
T2 construct: ubiquitin (human, 76 aa) (N, cleaved yes); expressed in transfected cells
T2 sequence (P34021 221-878 limits assumed, stated change not applied): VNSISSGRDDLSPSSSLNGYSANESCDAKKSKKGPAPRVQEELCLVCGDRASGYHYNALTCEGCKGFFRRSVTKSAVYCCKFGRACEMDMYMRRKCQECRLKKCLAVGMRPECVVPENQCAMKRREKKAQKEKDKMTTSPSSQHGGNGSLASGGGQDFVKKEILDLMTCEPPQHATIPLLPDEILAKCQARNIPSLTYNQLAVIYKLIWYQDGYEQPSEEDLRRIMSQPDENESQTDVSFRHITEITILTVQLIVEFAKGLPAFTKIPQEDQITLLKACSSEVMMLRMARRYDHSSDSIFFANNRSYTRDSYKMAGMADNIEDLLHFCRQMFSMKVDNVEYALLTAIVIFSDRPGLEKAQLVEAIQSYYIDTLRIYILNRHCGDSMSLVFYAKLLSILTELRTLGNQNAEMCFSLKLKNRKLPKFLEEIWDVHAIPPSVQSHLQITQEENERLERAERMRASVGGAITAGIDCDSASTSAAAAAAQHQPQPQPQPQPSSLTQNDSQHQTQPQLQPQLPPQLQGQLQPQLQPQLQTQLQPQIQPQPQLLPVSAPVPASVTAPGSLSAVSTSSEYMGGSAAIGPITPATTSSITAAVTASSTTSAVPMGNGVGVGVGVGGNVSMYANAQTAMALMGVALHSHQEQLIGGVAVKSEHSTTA
T2 sequence (P20153 whole entry partner): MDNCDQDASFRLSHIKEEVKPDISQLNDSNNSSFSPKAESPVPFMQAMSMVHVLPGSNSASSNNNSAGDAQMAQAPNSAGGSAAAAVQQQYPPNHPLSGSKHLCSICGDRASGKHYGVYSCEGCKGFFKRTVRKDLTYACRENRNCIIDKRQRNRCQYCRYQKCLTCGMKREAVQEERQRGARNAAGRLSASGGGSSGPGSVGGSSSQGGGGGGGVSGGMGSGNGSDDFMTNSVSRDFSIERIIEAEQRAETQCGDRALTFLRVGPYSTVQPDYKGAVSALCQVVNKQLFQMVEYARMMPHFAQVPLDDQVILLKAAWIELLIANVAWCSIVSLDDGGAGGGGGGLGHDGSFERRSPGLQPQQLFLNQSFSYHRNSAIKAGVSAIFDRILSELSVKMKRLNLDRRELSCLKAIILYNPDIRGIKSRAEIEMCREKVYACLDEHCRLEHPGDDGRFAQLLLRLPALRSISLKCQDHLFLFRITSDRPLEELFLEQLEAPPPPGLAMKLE
T2 sequence (Q61026 322-1121 partner limits assumed): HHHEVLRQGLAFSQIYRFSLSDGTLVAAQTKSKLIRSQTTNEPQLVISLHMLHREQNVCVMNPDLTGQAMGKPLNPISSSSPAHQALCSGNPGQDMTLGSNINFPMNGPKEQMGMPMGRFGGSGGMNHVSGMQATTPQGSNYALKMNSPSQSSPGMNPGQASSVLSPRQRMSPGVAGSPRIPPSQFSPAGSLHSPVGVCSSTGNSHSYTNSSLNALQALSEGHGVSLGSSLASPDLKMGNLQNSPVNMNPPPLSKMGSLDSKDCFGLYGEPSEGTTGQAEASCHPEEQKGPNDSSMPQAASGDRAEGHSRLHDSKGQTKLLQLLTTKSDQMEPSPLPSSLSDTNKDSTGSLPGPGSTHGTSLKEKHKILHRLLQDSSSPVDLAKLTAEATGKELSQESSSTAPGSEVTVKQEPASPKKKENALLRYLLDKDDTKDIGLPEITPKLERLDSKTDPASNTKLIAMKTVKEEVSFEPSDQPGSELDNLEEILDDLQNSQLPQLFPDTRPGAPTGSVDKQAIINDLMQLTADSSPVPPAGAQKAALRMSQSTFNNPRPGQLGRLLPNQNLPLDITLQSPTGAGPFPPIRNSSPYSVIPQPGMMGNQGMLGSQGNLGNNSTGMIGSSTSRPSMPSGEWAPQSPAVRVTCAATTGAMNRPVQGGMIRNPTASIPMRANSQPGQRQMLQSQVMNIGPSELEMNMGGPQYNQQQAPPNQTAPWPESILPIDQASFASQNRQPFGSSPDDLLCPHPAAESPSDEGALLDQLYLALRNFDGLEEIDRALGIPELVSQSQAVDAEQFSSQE
Method: (§1) Briefly, yeast cells are cultured in 5 mL of YPD liquid medium overnight at 30° C. The cell culture was diluted 1:20 in YPD media and further grown until cell density reached an O.D of 0.6. at OD600. The cells were pelleted by centrifugation and washed with 10 mL of TE+0.1M lithium acetate. Cells are then resuspended in 10 mL TE+0.1M lithium acetate and incubated at 30° C. for 1 hour. Cells are collected and resuspended in 0.5 mL of TE+ 0.1M lithium acetate. Aliquots of cells (50 μL), were incubated for 15 minutes at 30° C. with 1–2 μg plasmid DNA in the presence of 5 μg of denatured salmon sperm DNA as DNA carrier. In the case of co-transformation, the indicated plasmids were added simultaneously. 50% polyethyleneglycol of molecular weight 4000, diluted in TE, was added to a final concentration of 35%. DMSO was added to the transformation solution simultaneously to a final concentration 3%. The samples were mixed well by vortexing and incubated for an additional 30 minutes at 30° C. The cell mixture is then heated for 15 minutes at 42° C. Cells were then collected and plated onto appropriate yeast selective media. Transformants of 4 plasmids are selected on the complete media without tryptophan, uracil, leucine and histidine.
(§2) The yeast cells grown overnight in selective liquid media at 30° C. were diluted in prewarmed liquid selective media to 0.1 at OD600 (ODculture). 100 μl of the cell culture was spiked to each well of a.96-well microtiter plate. Ligand (2 μl diluted in DMSO) was added to each well giving a final concentration of DMSO of 2%. As a control, 2 μl of DMSO were also added to additional test wells. The final concentration of the tested compounds in the media is 10 μM. The cells were incubated in the presence of ligand in a shaker at 30° C. After 4 hours of incubation, 100 μl of 2× “Z” Sarcosine-ONPG buffer (120 mM Na2HPO4, 80 mM NaH2PO4, 20 mM KCl, 2 mM MgSO4, 100 mM beta-mercaptoethanol (Sigma), pH 7.0, 0.4% lauroyl sarcosine (Sigma), 4 mg/mL ONPG (Diagnostic Chemicals limited) was added to each well and the plate was further incubated at 37° C. The 2× “Z” Sarcosine-ONPG buffer is freshly prepared or stored at −20° C. prior to use. After incubation at 37° C. for 1 hour. The reaction was stopped by adding 100 μL of quenching solution 0.5 M Na2CO3 and OD405 (ODreaction) and beta-galactosidase activity was measured in a micro plate reader (Biotek) at a wave length of 405–450 nanometers. The effect of copper on enhancement of the transactivation response mediated by the ligands tested was studied by adding CuSO4 to the media to a final concentration of 10 μM.
(§3) Using the transformation method set forth above, yeast were co-transformed with a reporter gene as shown in FIG. 2 and the expression vector encoding the full-length D. melanogaster ecdysone receptor, DmEcR (FIG. 3A) in the presence or absence of the Dm EcR heterodimer partner, DmUSP (FIG. 4A). Transformed cells were incubated with DMSO alone as a control or with a proprietary ecdysone receptor ligand (Rohm & Haas compound RH5992—tebufenozide) at final concentration 10 μM for 4 hours. The samples were then assayed for β-galactosidase activity as described above. […] As the N-terminal portion of the Dm EcR receptor is reported to play a role in ligand independent transactivation, an expression vector containing an N-terminal deletion in the EcR was constructed (see FIG. 3B) and assessed in the β-galactosidase assays described above. […] Restoration of ligand dependent transactivation was observed only when the DmΔN EcR, DmUSP and co-activator GRIP1 were coexpressed. See Table I. The data obtained indicate that the efficiency of ligand-dependent transactivation of the ecdysone receptor requires both heterodimer formation between EcR and USP, and proper interaction with co-activator GRIP1. […]

[3] = molecular target: T3, Dm EcR + DmUSP (Drosophila melanogaster, UniProt P34021); assay: as above; settings: RH 5992 10 μM, 4 hours, DMSO control 2.091
T3 construct: ubiquitin (human, 76 aa) (N, cleaved yes); expressed in transfected cells
T3 sequence (P34021 whole entry): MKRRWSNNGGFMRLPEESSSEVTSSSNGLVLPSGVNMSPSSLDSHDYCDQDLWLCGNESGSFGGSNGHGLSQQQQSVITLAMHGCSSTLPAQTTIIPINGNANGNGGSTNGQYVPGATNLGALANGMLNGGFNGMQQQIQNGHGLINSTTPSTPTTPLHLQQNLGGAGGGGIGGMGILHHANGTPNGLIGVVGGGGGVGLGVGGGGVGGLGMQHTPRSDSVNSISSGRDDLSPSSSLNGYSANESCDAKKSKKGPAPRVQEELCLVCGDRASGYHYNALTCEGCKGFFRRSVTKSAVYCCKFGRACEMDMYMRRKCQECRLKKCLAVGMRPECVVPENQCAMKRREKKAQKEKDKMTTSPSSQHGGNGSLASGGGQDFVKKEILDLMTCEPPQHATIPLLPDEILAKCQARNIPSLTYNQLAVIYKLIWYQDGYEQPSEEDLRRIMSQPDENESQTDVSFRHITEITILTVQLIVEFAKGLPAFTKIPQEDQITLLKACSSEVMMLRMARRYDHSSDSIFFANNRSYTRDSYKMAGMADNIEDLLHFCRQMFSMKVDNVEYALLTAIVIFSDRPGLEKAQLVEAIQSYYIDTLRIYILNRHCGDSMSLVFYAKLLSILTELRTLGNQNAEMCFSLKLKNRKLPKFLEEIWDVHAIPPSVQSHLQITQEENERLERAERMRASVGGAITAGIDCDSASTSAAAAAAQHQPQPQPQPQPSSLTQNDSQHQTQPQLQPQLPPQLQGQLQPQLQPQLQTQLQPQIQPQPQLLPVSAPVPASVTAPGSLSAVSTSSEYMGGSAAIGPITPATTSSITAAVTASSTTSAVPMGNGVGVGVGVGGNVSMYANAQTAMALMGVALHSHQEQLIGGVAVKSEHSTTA
T3 sequence (P20153 whole entry partner): as the sequence (P20153 whole entry partner) above
Method: as §1, §2, §3

[4] = molecular target: T4, Dm EcR-B1 (Drosophila melanogaster, UniProt P34021); assay: as above; settings: RH 5992 10 μM, 4 hours, DMSO control 1.090
T4 construct: ubiquitin (human, 76 aa) (N, cleaved yes); expressed in transfected cells
T4 sequence (P34021 whole entry): as the sequence (P34021 whole entry) above
Method: as §1, §2, §3

[5] = molecular target: T5, Dm ΔN EcR + DmUSP (Drosophila melanogaster, UniProt P34021); assay: as above; settings: 4 hours
T5 construct: ubiquitin (human, 76 aa) (N, cleaved yes); expressed in transfected cells
T5 sequence (P34021 221-878 limits assumed, stated change not applied): as the sequence (P34021 221-878 limits assumed, stated change not applied) above
T5 sequence (P20153 whole entry partner): as the sequence (P20153 whole entry partner) above
Method: as §1, §2, §3

[6] = molecular target: T6, Dm ΔN EcR + Dm ΔA/B USP + GRIP1 (Drosophila melanogaster, UniProt P34021); assay: as above; settings: RH 5992 10 μM, 4 hours, DMSO control 0.340
T6 construct: ubiquitin (human, 76 aa) (N, cleaved yes); expressed in transfected cells
T6 sequence (P34021 221-878, stated change not applied): as the sequence (P34021 221-878 limits assumed, stated change not applied) above
T6 sequence (P20153 with tags, fused parts or gaps partner): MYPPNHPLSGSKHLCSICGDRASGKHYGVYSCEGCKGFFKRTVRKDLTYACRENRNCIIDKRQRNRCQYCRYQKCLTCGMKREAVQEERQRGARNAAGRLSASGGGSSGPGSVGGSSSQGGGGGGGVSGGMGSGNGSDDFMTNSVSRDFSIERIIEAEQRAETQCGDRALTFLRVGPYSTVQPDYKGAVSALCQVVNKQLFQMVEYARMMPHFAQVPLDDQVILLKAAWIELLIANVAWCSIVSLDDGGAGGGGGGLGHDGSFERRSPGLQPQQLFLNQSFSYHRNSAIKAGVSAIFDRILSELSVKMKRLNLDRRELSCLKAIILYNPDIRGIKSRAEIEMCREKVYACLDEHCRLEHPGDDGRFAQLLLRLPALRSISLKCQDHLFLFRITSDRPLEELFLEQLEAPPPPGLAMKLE
Method: as §1, §2, §3

SMILES: CCc1ccc(C(=O)NN(C(=O)c2cc(C)cc(C)c2)C(C)(C)C)cc1 [RH 5992, tebufenozide]
- effect on reporter gene expression (in words) [1]: suppression of the levels of reporter gene expression
- β-galactosidase activity [2]: 2.537
- β-galactosidase activity [3]: 1.953
- β-galactosidase activity [4]: 1.200
- transactivation of the reporter gene (in words) ([5]; 10 μM, DmEcR with N-terminal deletion, DmUSP present or absent, no GRIP1): incapable of transactivating the reporter gene
- β-galactosidase activity ([5]; RH 5992 10 μM, yeast, Dm ΔN EcR + DmUSP, DMSO control 0.152): 0.182
- β-galactosidase activity [6]: 2.323
